Measurements reported in ChEMBL document CHEMBL4834400 (J Med Chem, 2021).

Experiments:
[1] = Drug concentration in Wistar Han rat plasma at 100 mg/kg, po measured at 0.37 hrs by HPLC-MS/MS
[2] = Drug concentration in Wistar Han rat brain at 100 mg/kg, po measured at 0.37 hrs by HPLC-MS/MS
[3] = Ratio of drug concentration in brain to plasma in Wistar Han rat at 100 mg/kg, po measured at 0.37 hrs by HPLC-MS/MS
[4] = Drug concentration in Wistar Han rat plasma at 100 mg/kg, po measured at 2 hrs by HPLC-MS/MS
[5] = Drug concentration in Wistar Han rat brain at 100 mg/kg, po measured at 2 hrs by HPLC-MS/MS
[6] = Ratio of drug concentration in brain to plasma in Wistar Han rat at 100 mg/kg, po measured at 2 hrs by HPLC-MS/MS
[7] = Drug concentration in Wistar Han rat plasma at 100 mg/kg, po measured at 6 hrs by HPLC-MS/MS
[8] = Drug concentration in Wistar Han rat brain at 100 mg/kg, po measured at 6 hrs by HPLC-MS/MS
[9] = Ratio of drug concentration in brain to plasma in Wistar Han rat at 100 mg/kg, po measured at 6 hrs by HPLC-MS/MS
[10] = Clearance in Sprague-Dawley rat at 5 mg/kg, iv; settings: in vivo
[11] = Volume of distribution at steady state in Sprague-Dawley rat at 5 mg/kg, iv; settings: in vivo
[12] = Half life in Sprague-Dawley rat at 5 mg/kg, iv; settings: in vivo
[13] = Drug concentration in Sprague-Dawley rat at 5 mg/kg, iv measured at 0 hrs; settings: in vivo
[14] = Half life in Sprague-Dawley rat at 10 mg/kg, po; settings: in vivo
[15] = in vivo; settings: Sprague-Dawley, rat, po, 10 mg/kg
[16] = in vivo; settings: Sprague-Dawley, rat, plasma, po, 10 mg/kg
[17] = in vivo; settings: Sprague-Dawley, rat, plasma, po, 10 mg/kg; remark: listed apart in the source

Row | concentration at […] [1] [ng/mL] | concentration at […] [2] [ng/g] | Kp at […] [3] | concentration at 2 h [4] [ng/mL] | concentration at 2 h [5] [ng/g] | Kp at 2 h [6] | concentration at 6 h [7] [ng/mL] | concentration at 6 h [8] [ng/g] | Kp at 6 h [9] | clearance [10] [mL/min/kg] | Vd [11] [L/kg] | half-life [12] [min] | concentration at 0 h [13] [ng/mL] | half-life [14] [min] | bioavailability [15] [%] | Cmax at 24 h [16] [ng/mL] | AUC(0-inf) [17] [ng·h/mL] | Structure (SMILES)
1 | 3160 | 2850 | 0.91 | 3450 | 3030 | 0.86 | 1150 | 1190 | 1.02 |  |  |  |  |  |  |  |  | CCC(=O)NCC[C@@H]1CCc2ccc3c(c21)CCO3 [RAMELTEON]
2 |  |  |  |  |  |  |  |  |  | 35.2 | 1.05 | 19.8 | 935 | 31.8 | 53.5 | 2790 | 2490 | COc1ccc2[nH]cc(CCNC(C)=O)c2c1 [MELATONIN]
3 | 4200 | 13800 | 3.19 | 1230 | 3200 | 2.73 | 450 | 1210 | 2.73 |  |  |  |  |  |  |  |  | COc1ccc2cccc(CCNC(C)=O)c2c1 [AGOMELATINE]
